The NIST ThermoML archive (doi:10.1016/j.jct.2013.11.027)
Several values for one entry are separate records, joined by “and”; a condition that tells them apart may be missing. Equal values may be shown once.

Assays:
[1] = 101.33 kPa, Liquid; for speed of sound: Sing-around technique in a fixed-path interferometer; for mass density: Vibrating tube method
[2] = refractive index (Na D-line) (dimensionless); conditions: 101.33 kPa, Liquid, Standard Abbe refractometry
[3] = xn = mol fraction of the nth substance listed; conditions: 101 kPa, Liquid, x2 = 0; for speed of sound: Sing-around technique in a fixed-path interferometer; for mass density: Vibrating tube method
[4] = refractive index (Na D-line) (dimensionless); xn = mol fraction of the nth substance listed; conditions: 101 kPa, Liquid, Standard Abbe refractometry, x2 = 0

C1COCCO1 [1,4-dioxane]
Conditions | mass density, [1] [kg/m3] | refractive index, [2] | speed of sound, [1] [m/s]
293.15 K | 1033.5 | 1.42215 | 1367.2
298.15 K | 1027.85 | 1.41967 | 1345
303.15 K | 1022.19 | 1.41725 | 1323
308.15 K | 1016.52 | 1.4148 | 1301.1
313.15 K | 1010.83 | 1.41236 | 1279.4
318.15 K | 1005.12 | 1.40993 | 1257.8
323.15 K | 999.4 | 1.40749 | 1236.3

C1COCCO1 [1,4-dioxane] + CCCCCCCC[n+]1ccn(C)c1.F[B-](F)(F)F
Conditions | mass density, 298.15 K [kg/m3] | mass density, 308.15 K [kg/m3] | mass density, 318.15 K [kg/m3] | refractive index, 298.15 K | refractive index, 308.15 K | refractive index, 318.15 K | speed of sound, 298.15 K [m/s] | speed of sound, 308.15 K [m/s] | speed of sound, 318.15 K [m/s]
[3] | 1027.85 | 1016.52 | 1005.12 | – | – | – | 1345 | 1301.1 | 1257.8
[4] | – | – | – | 1.41967 | 1.4148 | 1.40993 | – | – | –

C1COCCO1 [1,4-dioxane] + CCCCCCn1cc[n+](C)c1.F[B-](F)(F)F
Conditions | mass density, 298.15 K [kg/m3] | mass density, 308.15 K [kg/m3] | mass density, 318.15 K [kg/m3] | refractive index, 298.15 K | refractive index, 308.15 K | refractive index, 318.15 K | speed of sound, 298.15 K [m/s] | speed of sound, 308.15 K [m/s] | speed of sound, 318.15 K [m/s]
[3] | 1027.85 | 1016.52 | 1005.12 | – | – | – | 1345 | 1301.1 | 1257.8
[4] | – | – | – | 1.41967 | 1.4148 | 1.40993 | – | – | –

CCCCCCn1cc[n+](C)c1.F[B-](F)(F)F [1-hexyl-3-methylimidazolium tetrafluoroborate]
Conditions | mass density, [1] [kg/m3] | refractive index, [2] | speed of sound, [1] [m/s]
293.15 K | 1148.76 | 1.43308 | 1509.3
298.15 K | 1145.11 | 1.43167 | 1496.7
303.15 K | 1141.47 | 1.43029 | 1484.3
308.15 K | 1137.71 | 1.4289 | 1472
313.15 K | 1134.09 | 1.42752 | 1459.8
318.15 K | 1130.49 | 1.42612 | 1447.7
323.15 K | 1126.89 | 1.42474 | 1435.7

CCCCCCCC[n+]1ccn(C)c1.F[B-](F)(F)F [1-methyl-3-octylimidazolium tetrafluoroborate]
Conditions | mass density, [1] [kg/m3] | refractive index, [2] | speed of sound, [1] [m/s]
293.15 K | 1100.59 | 1.43389 | 1495.5
298.15 K | 1097.61 | 1.43296 | 1481.1
303.15 K | 1094.07 | 1.43192 | 1467.3
308.15 K | 1090.9 | 1.42939 | 1453.9
313.15 K | 1087.41 | 1.42772 | 1440.9
318.15 K | 1084.17 | 1.42684 | 1428.2
323.15 K | 1080.75 | 1.42696 | 1414.7

C1CCOC1 [tetrahydrofuran]
Conditions | mass density, [1] | refractive index, [2] | speed of sound, [1] [m/s]
293.15 K | 888.69 kg/m3 | 1.40696 | 1304.6
298.15 K | 882.21 kg/m3 and 882.209 kg/m3 | 1.4042 | 1280.5
303.15 K | 877.7 kg/m3 | 1.40157 | 1256.4
308.15 K | 872.16 kg/m3 and 871.159 kg/m3 | 1.39885 | 1232.5
313.15 K | 866.58 kg/m3 | 1.39623 | 1208.8
318.15 K | 860.96 kg/m3 and 859.955 kg/m3 | 1.39349 | 1185.2
323.15 K | 855.29 kg/m3 | 1.39083 | 1161.7

C1CCOC1 [tetrahydrofuran] + CCCCCCCC[n+]1ccn(C)c1.F[B-](F)(F)F
Conditions | mass density, 298.15 K [kg/m3] | mass density, 308.15 K [kg/m3] | mass density, 318.15 K [kg/m3] | refractive index, 298.15 K | refractive index, 308.15 K | refractive index, 318.15 K | speed of sound, 298.15 K [m/s] | speed of sound, 308.15 K [m/s] | speed of sound, 318.15 K [m/s]
[3] | 882.209 | 871.159 | 859.955 | – | – | – | 1280.5 | 1232.5 | 1185.2
[4] | – | – | – | 1.4042 | 1.39885 | 1.39349 | – | – | –

C1CCOC1 [tetrahydrofuran] + CCCCCCn1cc[n+](C)c1.F[B-](F)(F)F
Conditions | mass density, 298.15 K [kg/m3] | mass density, 308.15 K [kg/m3] | mass density, 318.15 K [kg/m3] | refractive index, 298.15 K | refractive index, 308.15 K | refractive index, 318.15 K | speed of sound, 298.15 K [m/s] | speed of sound, 308.15 K [m/s] | speed of sound, 318.15 K [m/s]
[3] | 882.209 | 871.159 | 859.955 | – | – | – | 1280.5 | 1232.5 | 1185.2
[4] | – | – | – | 1.4042 | 1.39885 | 1.39349 | – | – | –
